Assay results reported in article PMC10829696, “Identification, expression profiles, and binding properties of chemosensory protein 18 in Plutella xylostella (Lepidoptera: Plutellidae)” (Journal of Insect Science, 2024).
Read-outs that look alike come from different tables or passages of the source.

Key:
[1] = target: T1, PxylCSP18 (Plutella xylostella, UniProt A0ABQ7Q8H2, Q80P); test: Titration of PxylCSP18 with fluorescent probe 1-NPN (Scatchard plot); assay type: binding; settings: 1 µM protein in 20 mM Tris–HCl pH 7.4, 1-NPN 1 to 17 µM, Scatchard plots; read-out: dissociation constant (K1-NPN)
Description: The fluorescence competitive binding assays were performed as described previously ([Fu et al. 2020], [Hua et al. 2021]) with some modifications. Briefly, the emission spectra of the fluorescent probe, N-phenyl-1-naphthylamine (1-NPN, Sigma-Aldrich, USA), were recorded from 350 to 600 nm with 5 nm width of the emission slits and the excitation wavelength was 337 nm. To measure the affinity of 1-NPN to PxylCSP18, 1 µM protein in 20 mM Tris–HCl buffer (pH 7.4) was titrated with 1-NPN to final concentrations ranging from 1 to 17 µM in 1 cm light path quartz cuvette. After incubation for 3 min, the fluorescence intensity for each test was detected on an RF-5301 fluorescence spectrophotometer (Shimadzu, Japan). The average data of the recorded fluorescence intensity at the maximum emission wavelength were linearized using the Scatchard equation, and the dissociation constants for 1-NPN were then calculated ([Sideris et al. 1992], [Hua et al. 2021]). Sixteen ligands, including 3 sex pheromone components ((Z)-11-hexadecenal, (Z)-11-hexadecenyl acetate, and (Z)-11-hexadecenyl alcolol) and some host volatiles (terpene, ketone, aldehyde, alcohol, and ester volatiles), were detected the affinities of PxylCSP18. The final concentrations for each ligand ranging from 1 to 17 µM were added into the mixed solution of 1-NPN probe (1 µM) and PxylCSP18 (1 µM). […]

[2] = target: T1, PxylCSP18; test: Fluorescence competitive binding assays with 1-NPN as probe; settings: for Ki: Ki = [IC50]/(1 + [1-NPN]/K1-NPN)
Description: The coding region of mature PxylCSP18 was cloned from the synthesized cDNA with the specific primers, in which an EcoR V and an Xho I restriction sites were introduced (Table 1). The amplified product was cloned into the pET-32a vector (Novagen, USA), followed by transformation into the competent E. coli BL21 (DE3) (Tiangen, China). The expression of PxylCSP18 in the bacteria was induced by 0.6 mM isopropyl-beta-D-thiogalactopyranoside (IPTG) overnight. Subsequently, the bacterial cells were collected through centrifugation and resuspended into phosphate-buffered saline (PBS) solution, then homogenized through sonication on ice using an ultrasonic processor (Sonics Vibra-Cell, USA). PxylCSP18 was purified from the soluble faction using a Ni^2+-NTA column (Roche, Switzerland) through a stepwise elution with 20, 50, 100, 150, and 500 mM imidazole in PBS. […] Finally, the PxylCSP18 was concentrated through ultrafiltration using a centrifugal device (3 kDa, Merck Millipore, USA), and the concentration was determined using the BCA Protein Assay Kit (Sangon, China). The purified recombinant PxylCSP18 was verified by peptide mass fingerprinting (Sangon Biotech, China).
Briefly, the emission spectra of the fluorescent probe, N-phenyl-1-naphthylamine (1-NPN, Sigma-Aldrich, USA), were recorded from 350 to 600 nm with 5 nm width of the emission slits and the excitation wavelength was 337 nm. […] Sixteen ligands, including 3 sex pheromone components ((Z)-11-hexadecenal, (Z)-11-hexadecenyl acetate, and (Z)-11-hexadecenyl alcolol) and some host volatiles (terpene, ketone, aldehyde, alcohol, and ester volatiles), were detected the affinities of PxylCSP18. […] The acquired data were calculated from the Scatchard plots for dissociation constants (Kd) and the curves, assuming PxylCSP18 was active completely and bound to the ligands in a 1:1 ratio at saturation.

[3] = test system: PxylCSP11; design: method as in Fu et al. 2020; settings: ref Fu et al. 2020; cited from earlier work
[4] = test system: P. xylostella adults; test: Y-tube olfactometer bioassays after RNAi knockdown of PxylCSP18; assay type: in vivo, Plutella xylostella; settings: day-2 unmated, 10 μg/μl in paraffin oil, dsCSP18 vs dsGFP
Description: The pupae the day before eclosion were collected and used for RNA interference. The pupae were anesthetized on ice and then injected with 1 μl of dsRNA (10 μg/μl) at the dorsal site of the abdomen using a Nanoject III micro-injector (Drummond Scientific, Broomall, PA) equipped with glass capillaries prepared using a P-97 micropipette puller (Sutter Instrument Co., Novato, CA). The antennae of day-2 unmated female and male adults were collected to detect the efficiency of RNAi-mediated knockdown of PxylCSP18 through […]. Three independent biological replicates were performed.
The responses of the day-2 unmated female and male adults to the volatile compounds were performed using a glass Y-tube olfactometer with a central glass tube (5 cm long × 2.5 cm ID) and 2 lateral glass arms (15 cm long × 2.5 cm ID) with a 75° inside angle as described previously ([Yan et al. 2023]), with some modifications. Before bioassays, all glasswares were cleaned and washed with absolute alcohol and dried at 100 °C for 5 min. A moistened and activated charcoal-filtered airflow (350 mL/min) was pumped into each source container using an atmospheric sampling instrument (QC-1S, Beijing Institute of Labor Protection Science, Beijing, China). The behavioral response of male and female adults of P. xylostella to trans-2-hexen-1-ol, isopropyl isothiocyanate, myrcene, linalool were then observed. Each component was diluted with paraffin oil to 10 μg/μl. For each chemical, an aliquot of 10 μl was applied to a strip of filter paper (0.5 × 5 cm) and placed in 1 source container. A filter paper strip loaded with the same volume of paraffin oil and placed in the second source container was used as a control. Each test male or female moth was released at the entrance of the central glass tube of the Y-tube olfactometer and observed for 5 min. […] The positions of the arms were reversed after 5 insects to avoid positional bias. The experimental device was cleaned after every 10 insects by washing it with absolute acetone and followed by heating at 100 °C for 5 min. Each concentration of compound stimulus was tested with 30 insects, which successfully made a “choice.” The choice index was calculated as the number of responses of moths to […] divided by the total number of test moths.

[5] = test system: P. xylostella; settings: ref Song et al. 2022; cited from earlier work
[6] = test system: PxylCSP1; design: method as in Liu et al. 2010; settings: ref Liu et al. 2010; cited from earlier work
[7] = 1-NPN 1 µM, PxylCSP18 1 µM, ligand 1 to 17 µM, concentration of ligand halving the initial fluorescence, N.D. = no significant binding detected, read-out: IC50
[8] = 1-NPN 1 µM, PxylCSP18 1 µM, N.D. = no significant binding detected
[9] = 1-NPN 1 µM, PxylCSP18 1 µM, ligand 1 to 17 µM

T1 sequence (A0ABQ7Q8H2 entry or part of it Q80P): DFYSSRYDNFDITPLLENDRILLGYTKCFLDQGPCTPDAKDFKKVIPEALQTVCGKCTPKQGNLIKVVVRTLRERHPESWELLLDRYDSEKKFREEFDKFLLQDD

c1ccc(Nc2cccc3ccccc23)cc1 [1-NPN, N-phenyl-1-naphthylamine]
Kd [1]: 9.85 µM

CCCCCCCCC=O [1-Nonanal]
IC50 [2]: 7.94 µM

C=CC(O)CC (stereo not drawn) [1-Penten-3-ol]
IC50 [2]: 7.17 µM

CCCC(C)CC(C)C (stereo not drawn) [2,4-dimethylheptane]
affinity of PxylCSP11 [3]: good affinities

CCC/C=C/CO [(E)-2-Hexenal-1-ol]
IC50 [2, 7]: 7.66 µM
Ki [2, 8]: 6.11 µM
attractive effects to P. xylostella female adults after knocked down the expression of PxylCSP18 [4]: decreased inconspicuously
attractive effects to P. xylostella male adults after knocked down the expression of PxylCSP18 [4]: significantly decreased

CC/C=C\CCOC(C)=O [(Z)-3-Hexenyl acetate]
IC50 [2]: 9.09 µM

CCCC/C=C\CCCCCCCCCC=O [(Z)-11-hexadecenal]
binding affinity of PxylCSP18 to ligand (in words) [2, 9]: no significant binding affinity

CCCC/C=C\CCCCCCCCCCOC(C)=O [(Z)-11-hexadecenyl acetate]
binding affinity of PxylCSP18 to ligand (in words) [2, 9]: no significant binding affinity
affinity of PxylCSP11 [3]: good affinities

CCCC/C=C\CCCCCCCCCCO [(Z)-11-hexadecenyl alcolol]
binding affinity of PxylCSP18 to ligand (in words) [2, 9]: no significant binding affinity

C=CCN=C=S [Allyl isothiocyanate]
IC50 [2]: 7.23 µM
affinity of PxylCSP11 [3]: good affinities

CCCCN=C=S [Buty1 isothiocyanate]
IC50 [2]: 8.86 µM

CCCCCC=O [Caproldehyde]
IC50 [2, 7]: 7.49 µM
Ki [2, 8]: 5.98 µM

CC(C)N=C=S [Isopropyl isothiocyanate]
IC50 [2]: 8.17 µM
attractive effects to P. xylostella female adults after knocked down the expression of PxylCSP18 [4]: significantly weakened
attractive effects to P. xylostella male adults after knocked down the expression of PxylCSP18 [4]: significantly decreased

C=C(C)[C@H]1CC=C(C)CC1 [Limonene]
IC50 [2, 7]: 1.85 µM
Ki [2, 8]: 1.48 µM

C=CC(C)(O)CCC=C(C)C (stereo not drawn) [Linalool]
IC50 [2]: 7.61 µM
repellent effects to P. xylostella female adults after knocked down the expression of PxylCSP18 [4]: significantly weakened
repellent effects to P. xylostella male adults after knocked down the expression of PxylCSP18 [4]: decreased inconspicuously

C=CC(=C)CCC=C(C)C [Myrcene]
IC50 [2]: 1.34 µM
repellent effects to P. xylostella female adults after knocked down the expression of PxylCSP18 [4]: decreased inconspicuously
repellent effects to P. xylostella male adults after knocked down the expression of PxylCSP18 [4]: decreased inconspicuously
behavioural effect on P. xylostella [5]: repellent

CC1(C)[C@H]2O[C@H]2[C@H]2[C@](C)(O)[C@@H]3CC[C@@H]4[C@@H](O)[C@@]3(C[C@@H](O)[C@@]21O)C[C@@]4(C)O [Rhodojaponin-III]
ability of PxylCSP1 to bind [6]: remarkable ability to bind

OCCc1ccccc1 [phenethyl alcohol]
affinity of PxylCSP11 [3]: good affinities

S=C=NCCc1ccccc1 [phenethyl isothiocyanate]
affinity of PxylCSP11 [3]: good affinities

CC(=O)/C=C/C1C(C)=CCCC1(C)C (stereo not drawn) [α-Ionone]
IC50 [2]: 4.19 µM

CC1=CC=C(C(C)C)CC1 [α-Terpinene]
IC50 [2]: 1.29 µM
affinity of PxylCSP11 [3]: good affinities

CC1=CC[C@@H](C(C)(C)O)CC1 [α-terpineol]
affinity of PxylCSP11 [3]: good affinities

CC1=CCC(C(C)C)=CC1 [γ-Terpinene]
IC50 [2]: 1.21 µM
behavioural effect on P. xylostella [5]: repellent
